Laboratory results published in patent US11623919B2, “Heterocyclic P2X7 antagonists” (AXXAM S.P.A., priority 2017, dated 2023).

Key:
Type in all cases: cell-based
P2X7 receptor [1] = biological target: T1, P2X7 receptor (Mus musculus, UniProt Q9Z1M0); experiment: Screen Quest Fluo-8 No Wash Calcium Assay (Bz-ATP evoked Ca2+ influx, FLIPR); conditions: mP2X7; HEK-293 cells stably transfected with P2X7 receptor, Bz-ATP at EC80, Fluo-8 NW; potency ranges A-D
T1 construct: mP2X7 (IC50; nM); other: mP2X7; HEK-293 cells stably transfected with P2X7 receptor, Bz-ATP at EC80, Fluo-8 NW; potency
T1 sequence (Q9Z1M0 1-595): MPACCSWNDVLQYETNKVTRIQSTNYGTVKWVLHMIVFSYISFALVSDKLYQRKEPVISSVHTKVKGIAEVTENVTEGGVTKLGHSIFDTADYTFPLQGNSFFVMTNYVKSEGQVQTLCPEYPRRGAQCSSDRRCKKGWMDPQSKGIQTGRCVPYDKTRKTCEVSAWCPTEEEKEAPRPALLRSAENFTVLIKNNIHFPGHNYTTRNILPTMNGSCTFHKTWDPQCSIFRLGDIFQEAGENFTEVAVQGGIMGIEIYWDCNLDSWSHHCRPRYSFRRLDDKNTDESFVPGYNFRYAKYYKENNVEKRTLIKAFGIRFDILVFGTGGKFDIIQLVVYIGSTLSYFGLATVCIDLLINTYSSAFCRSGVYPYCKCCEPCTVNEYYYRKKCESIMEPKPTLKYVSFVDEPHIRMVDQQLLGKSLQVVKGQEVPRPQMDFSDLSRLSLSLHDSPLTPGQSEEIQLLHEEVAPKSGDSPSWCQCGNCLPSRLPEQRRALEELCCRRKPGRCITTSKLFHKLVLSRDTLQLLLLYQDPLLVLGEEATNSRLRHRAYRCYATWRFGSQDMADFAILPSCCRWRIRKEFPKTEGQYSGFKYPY
Method in brief: (§1)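 Compounds were added to Fluo-8-loaded P2X7-transfected HEK-293 cells 5 min before an EC80 Bz-ATP challenge, and Ca2+ influx was then recorded for 3 min. Buffer held 0.3 mM Ca2+ and no Mg2+. Inhibition was normalised to A438079, giving IC50 values.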

P2X7 receptor [2] = biological target: T2, P2X7 receptor (Homo sapiens, UniProt Q99572); experiment: Automated patch-clamp (QPatch16X) P2X7 channel assay; set-up: expressed in transfected cells; host or cells: HEK-293; conditions: HEK-293 cells expressing P2X7 channels; whole-cell, held at -80 mV; 100 microM BzATP; compound 1, 10, 100 and 1000 nM; read-out: Q-Patch (IC50)
T2 sequence (Q99572 1-595): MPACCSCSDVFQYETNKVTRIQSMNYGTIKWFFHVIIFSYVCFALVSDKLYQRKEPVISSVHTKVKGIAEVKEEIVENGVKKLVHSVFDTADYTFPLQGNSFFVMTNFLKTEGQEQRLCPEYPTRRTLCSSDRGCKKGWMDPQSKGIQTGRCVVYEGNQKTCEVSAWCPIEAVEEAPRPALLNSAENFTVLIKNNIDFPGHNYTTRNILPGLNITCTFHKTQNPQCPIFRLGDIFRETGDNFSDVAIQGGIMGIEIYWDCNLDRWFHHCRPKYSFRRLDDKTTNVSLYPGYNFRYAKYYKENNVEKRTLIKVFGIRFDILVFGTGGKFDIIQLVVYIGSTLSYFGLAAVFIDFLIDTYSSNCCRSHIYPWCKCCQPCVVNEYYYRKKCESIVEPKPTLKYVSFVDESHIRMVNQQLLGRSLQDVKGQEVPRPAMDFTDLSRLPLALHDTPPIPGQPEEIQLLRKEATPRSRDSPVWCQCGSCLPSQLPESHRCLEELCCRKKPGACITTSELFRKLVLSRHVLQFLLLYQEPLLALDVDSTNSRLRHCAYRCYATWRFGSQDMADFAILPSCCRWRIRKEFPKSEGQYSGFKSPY
Experimental: In order to directly monitor the block of P2X7 channel, an electrophysiological assay was developed and implemented on the QPatch16X automated electrophysiology instrument.
HEK-293 cells expressing the P2X7 channels were cultured in modified EMEM.
72 hours before experiment, 5 million cells were seeded onto T225 flasks. Just before the experiment cells were washed twice, detached from the flask with trypsin-EDTA, re-suspended in the suspension solution and placed on the QPatch 16x.
The compounds (20 mM in a 100% DMSO) stored at −20° C. were prepared the day of the experiment (a first dilution 1:20 in 100% DMSO to prepare a 1 mM stock solution, then a 1 microM solution in external solution+a serial dilution 1:10).
The standard whole-cell voltage clamp experiments were performed at room temperature. From these experiments the multihole technology was used and the data were sampled at 2 KHz.
The intracellular solution contained (mM) 135 CsF, 10 NaCl, 1 EGTA, 10 HEPES, (pH 7.2 with CsOH) whereas the extracellular contained (mM) 145 NaCl, 4 KCl, 0.5 MgCl2, 1 CaCl2, 10 HEPES, 10 Glc (pH 7.4 with NaOH).
After establishment of the seal and the passage in the whole cell configuration, the cells were held at −80 mV. The P2XR7 current was evoked by applying 100 microM of BzATP alone (4 times) and then in the presence increasing concentrations of the compound under investigation (1, 10, 100 and 1000 nM).
The pre-incubation periods 5 to 8 contain increasing concentrations of the compound of interest (1, 10, 100 and 1000 nM), as illustrated in FIGURE (application protocol).
The maximal inward current evoked by BzATP in absence or presence of increasing concentrations of the compounds under investigation was measured and normalized. The potential […] effect was measured as % of control and as IC50 determined fitting the dose-response curves data with the following equation: Y=100/(1+10^((Log IC50−X)*HillSlope))

P2X7 receptor [3] = biological target: T2, P2X7 receptor; experiment: Screen Quest Fluo-8 No Wash Calcium Assay (Bz-ATP evoked Ca2+ influx, FLIPR); set-up: hP2X7 (IC50; nM); other: hP2X7; HEK-293 cells stably transfected with P2X7 receptor, Bz-ATP at EC80, Fluo-8 NW; potency; conditions: hP2X7; HEK-293 cells stably transfected with P2X7 receptor, Bz-ATP at EC80, Fluo-8 NW; potency ranges A-D
Method in brief: as §1

| Compound | IC50 (P2X7 receptor [1]) [nM] | IC50 (P2X7 receptor [2]) [nM] | IC50 (P2X7 receptor [3]) [nM] |
| --- | --- | --- | --- |
| O=c1onc(Cc2cccc(Cl)c2Cl)n1Cc1ccc(F)cc1 [Example 71, 3-[(2,3-dichlorophenyl)methyl]-4-[(4-fluorophenyl)methyl]-4,5-dihydro-1,2,4-oxadiazol-5-one] | 1000 to 10000 | 1160 | 200 to 1000 |
| O=c1onc(Cc2c(F)cccc2Cl)n1CC1CCCCO1 (stereo not drawn) [Example 94, 3-[(2-chloro-6-fluorophenyl)methyl]-4-(oxan-2-ylmethyl)-4,5-dihydro-1,2,4-oxadiazol-5-one] | 1000 to 10000 | 332 | 200 to 1000 |
| O=c1onc(Cc2ccccc2C(F)(F)F)n1CC1CCCCC1 [Example 116, 4-(cyclohexylmethyl)-3-{[2-(trifluoromethyl)phenyl]methyl}-4,5-dihydro-1,2,4-oxadiazol-5-one] | 1000 to 10000 | 466 | 200 to 1000 |
| O=c1onc(Cc2ccc(F)cc2)n1Cc1c(F)cccc1Cl [Example 1, 4-[(2-chloro-6-fluorophenyl)methyl]-3-[(4-fluorophenyl)methyl]-4,5-dihydro-1,2,4-oxadiazol-5-one] | 1000 to 10000 | 247 | 200 to 1000 |
| O=c1onc(Cc2ccccc2Cl)n1Cc1ccc(F)cc1 [Example 76, 3-[(2-chlorophenyl)methyl]-4-[(4-fluorophenyl)methyl]-4,5-dihydro-1,2,4-oxadiazol-5-one] | 1000 to 10000 | 401 | 200 to 1000 |
| O=c1onc(Cc2cccc(F)c2)n1Cc1c(F)cccc1Cl [Example 81, 4-[(2-chloro-6-fluorophenyl)methyl]-3-[(3-fluorophenyl)methyl]-4,5-dihydro-1,2,4-oxadiazol-5-one] | 1000 to 10000 | 292 | 200 to 1000 |
| CC1(C)CCC(Cn2c(Cc3c(F)cccc3Cl)noc2=O)CC1 [Example 86, 3-[(2-chloro-6-fluorophenyl)methyl]-4-[(4,4-dimethylcyclohexyl)methyl]-4,5-dihydro-1,2,4-oxadiazol-5-one] | 200 to 1000 | 154 | 200 to 1000 |
| Cc1noc(C)c1Cc1noc(=O)n1CC1CCC(F)(F)CC1 [Example 211, 4-[(4,4-difluorocyclohexyl)methyl]-3-[(dimethyl-1,2-oxazol-4-yl)methyl]-4,5-dihydro-1,2,4-oxadiazol-5-one] | 1000 to 10000 | 119 | < 200 |
| O=c1onc(Cc2c(F)cccc2Cl)n1Cc1ccc(F)cc1F [Example 61, 3-[(2-chloro-6-fluorophenyl)methyl]-4-[(2,4-difluorophenyl)methyl]-4,5-dihydro-1,2,4-oxadiazol-5-one] | 1000 to 10000 | 149 | 200 to 1000 |

More lines, now with the values ahead:

| IC50 (P2X7 receptor [1]) [nM] | IC50 (P2X7 receptor [2]) [nM] | IC50 (P2X7 receptor [3]) [nM] | Compound |
| --- | --- | --- | --- |
| 200 to 1000 | 18.1 | < 200 | O=c1onc(Cc2c(F)cccc2Cl)n1CC1CCCCCC1 [Example 92, 3-[(2-chloro-6-fluorophenyl)methyl]-4-(cycloheptylmethyl)-4,5-dihydro-1,2,4-oxadiazol-5-one] |
| < 200 | 21.4 | < 200 | O=c1onc(Cc2c(F)cccc2Cl)n1CC1CCCCC1 [Example 82, 3-[(2-chloro-6-fluorophenyl)methyl]-4-(cyclohexylmethyl)-4,5-dihydro-1,2,4-oxadiazol-5-one] |
| 200 to 1000 | 153 | 200 to 1000 | O=c1onc(Cc2c(F)cccc2Cl)n1CCC1CCCCC1 [Example 142, 3-(2-chloro-6-fluorobenzyl)-4-(2-cyclohexylethyl)-1,2,4-oxadiazol-5(4H)-one] |
| 200 to 1000 | 386 | 200 to 1000 | CC(c1ccc(F)cc1)n1c(Cc2c(F)cccc2Cl)noc1=O (stereo not drawn) [Example 48, 3-[(2-chloro-6-fluorophenyl)methyl]-4-[1-(4-fluorophenyl)ethyl]-4,5-dihydro-1,2,4-oxadiazol-5-one] |
| 200 to 1000 | 51.1 | < 200 | Cc1cc(F)ccc1Cn1c(Cc2c(F)cccc2Cl)noc1=O [Example 25, 3-[(2-chloro-6-fluorophenyl)methyl]-4-[(4-fluoro-2-methylphenyl)methyl]-4,5-dihydro-1,2,4-oxadiazol-5-one] |
| 200 to 1000 | 182 | 200 to 1000 | O=c1onc(Cc2c(F)cccc2Cl)n1Cc1cccc(F)c1 [Example 26, 3-[(2-chloro-6-fluorophenyl)methyl]-4-[(3-fluorophenyl)methyl]-4,5-dihydro-1,2,4-oxadiazol-5-one] |
| 200 to 1000 | 94.9 | 200 to 1000 | O=c1onc(Cc2ccccc2Cl)n1CC1CCCCC1 [Example 117, 3-[(2-chlorophenyl)methyl]-4-(cyclohexylmethyl)-4,5-dihydro-1,2,4-oxadiazol-5-one] |
| 200 to 1000 | 167 | < 200 | O=c1onc(Cc2c(F)cccc2Cl)n1CC1CCCC1 [Example 85, 3-[(2-chloro-6-fluorophenyl)methyl]-4-(cyclopentylmethyl)-4,5-dihydro-1,2,4-oxadiazol-5-one] |
| 200 to 1000 | 124 | 200 to 1000 | CC1(C)CCCCC1Cn1c(Cc2c(F)cccc2Cl)noc1=O (stereo not drawn) [Example 99, 3-[(2-chloro-6-fluorophenyl)methyl]-4-[(2,2-dimethylcyclohexyl)methyl]-4,5-dihydro-1,2,4-oxadiazol-5-one] |
| 200 to 1000 | 44.1 | < 200 | CC1CCCCC1Cn1c(Cc2c(F)cccc2Cl)noc1=O (stereo not drawn) [Example 87, 3-[(2-chloro-6-fluorophenyl)methyl]-4-[(2-methylcyclohexyl)methyl]-4,5-dihydro-1,2,4-oxadiazol-5-one] |
| < 200 | 3.36 | < 200 | O=c1onc(CC2CCC(F)(F)CC2)n1Cc1c(F)cccc1Cl [Example 132, 4-[(2-chloro-6-fluorophenyl)methyl]-3-[(4,4-difluorocyclohexyl)methyl]-4,5-dihydro-1,2,4-oxadiazol-5-one] |
